Reference: paper PMC7766225, “Structure-Based Discovery and Bioactivity Evaluation of Novel Aurora-A Kinase Inhibitors as Anticancer Agents via Docking-Based Comparative Intermolecular Contacts Analysis (dbCICA)” (Molecules, 2020)

Target: T1, Aurora-A kinase (Homo sapiens, UniProt O14965)
T1 construct: purchased Invitrogen (Carlsbad, CA, USA)
T1 sequence (O14965 1-403): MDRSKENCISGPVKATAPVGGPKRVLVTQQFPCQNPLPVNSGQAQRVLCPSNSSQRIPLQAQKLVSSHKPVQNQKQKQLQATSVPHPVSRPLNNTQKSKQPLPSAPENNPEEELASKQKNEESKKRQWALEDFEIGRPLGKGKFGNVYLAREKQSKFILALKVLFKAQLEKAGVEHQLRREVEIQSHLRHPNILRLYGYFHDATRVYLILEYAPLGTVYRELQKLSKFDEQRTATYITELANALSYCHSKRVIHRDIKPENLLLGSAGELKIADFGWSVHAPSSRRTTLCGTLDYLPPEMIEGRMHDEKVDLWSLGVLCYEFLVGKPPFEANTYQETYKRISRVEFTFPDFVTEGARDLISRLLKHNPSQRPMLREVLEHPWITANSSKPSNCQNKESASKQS
Experiment: not given
Conditions: Table S1, ChEMBL; ref Mortlock, et al., 2007; cited from earlier work

Compound	Ki [µM]
COc1cc2c(Nc3cc(CC(=O)Nc4ccccc4)[nH]n3)ncnc2cc1OCCCN1CCC(CO)CC1 [Compound 1]	1.6
COc1cc2c(Nc3cc(CC(=O)Nc4ccccc4F)[nH]n3)ncnc2cc1OCCCN1CCC(CO)CC1 [Compound 2]	1.4

Target: T1, Aurora-A kinase
Experiment: FRET-based Z'-LYTE kinase enzyme inhibition assay
Type: biochemical
Conditions: 10 µM, duplicates, Z'-LYTE
Method: This bioassay was conducted using Z′-LYTE® kinase assay (Invitrogen, Carlsbad, CA, USA) [68, 69]. This biochemical assay depends on fluorescence emission as detection method utilizing a synthetic fluorescence resonance energy transfer (FRET) peptide with two fluorophores: coumarin that work as donor and fluorescein as acceptor [69]. Each hit or compound was dissolved in DMSO to form 10 mM stock solution. Hits were screened at 10 μM concentration. The bioassay was performed in black 384-well plate. For each assay, 100 nL of tested compound stock solution (10 mM) was mixed with 2.4 μL kinase buffer, 5 μL (peptide substrate/Aurora-A Kinase) mixture, and 2.5 μL ATP solution.
The tests were conducted in duplicates.

Compound	% Inhibition at 10 µM [%]
COc1ccc(-c2oc3ccc(C)cc3c(=O)c2O)cc1 [Hit 80]	20
CCCCN[C@@H](c1ccc(OC)cc1)[C@H](O)c1ccc(OC)cc1 [Hit 81]	3
COc1ccc(/C=N/N=C/c2ccc(OC)cc2)cc1 [Hit 82]	5
CC(Cc1ccccc1)=NNS(=O)(=O)c1ccc([N+](=O)[O-])cc1 [Hit 83]	7
CC(=NNS(=O)(=O)c1ccc([N+](=O)[O-])cc1)c1ccc(C)cc1 [Hit 86]	12
O=C(NCCc1ccccc1)c1ccc([N+](=O)[O-])cc1 [Hit 87]	-4
COc1ccc(C=NNS(=O)(=O)c2ccc(NC(C)=O)cc2)cc1 [Hit 89]	2
COc1ccc(C(=O)OCc2ccc3c(c2)OCO3)cc1 [Hit 90]	-2
CCNC(Cc1ccc(OC)cc1)c1ccc(OC)cc1 (stereo not shown) [Hit 91]	-2
COc1ccc(C(Cc2ccc(Cl)cc2)NCCO)cc1 (stereo not shown) [Hit 92]	3
COc1ccc2c(ccc[n+]2CC(=O)c2ccc(SC)cc2)c1 [Hit 93]	14
COc1ccc(C(=O)OCc2ccc3c(c2)OCO3)cc1 [Hit 94]	-2
COc1ccc(CC(C)NCC(O)c2ccc(O)c(O)c2)cc1 (stereo not shown) [Hit 95]	30
COc1cccc(/C=C/C(=O)/C=C/C=C/c2ccccc2)c1 [Hit 96]	0
CCOC(=O)C(=Cc1cc(C)c(OC(C)=O)c(OC)c1)NC(=O)c1ccccc1 [Hit 97]	-4
COc1ccc(CCc2ccc3cc(OC)ccc3n2)cc1 [Hit 98]	-5
COc1ccc(C(=O)OCc2ccc3c(c2)OCO3)cc1 [Hit 99]	5
COc1ccc(CNCCNCc2ccc(OC)cc2)cc1 [Hit 100]	7
COc1ccc(NC(=O)CC(=O)Nc2ccc(OC)cc2)cc1 [Hit 101]	6
CC(=O)Nc1ccc(S(=O)(=O)NN=Cc2ccc(C)cc2)cc1 [Hit 102]	6
CC(=O)Nc1ccc(S(=O)(=O)NN=Cc2cc(Cl)ccc2O)cc1 [Hit 103]	12
NC[C@@H](O)c1ccc(Nc2ccnc3cc(Cl)ccc23)cc1 [Hit 104]	23
COc1ccc(C(=O)[C@H](CN(C)C)c2ccc(OC)cc2)cc1 [Hit 105]	1

Compound	% Inhibition at 10 µM [%]
Cc1ccc[n+](CC(=O)c2ccc([N+](=O)[O-])cc2)c1 [Hit 106]	6
CC(Cc1ccccc1)NCC(=O)c1ccc(O)c(O)c1 (stereo not shown) [Hit 107]	25
COc1ccc(NC(=O)c2ccc(Cl)cc2Cl)cc1 [Hit 108]	-7
COc1ccc(C(=O)Oc2ccc(C=O)cc2OC)cc1 [Hit 109]	-142
CCOc1ccc(N=C(C)Nc2ccc(OCC)cc2)cc1 [Hit 110]	3
C[n+]1c(/C=C/c2ccc([N+](=O)[O-])cc2)oc2ccccc21 [Hit 111]	1
COc1ccc(C(=O)C=Cc2ccc3c(c2)OCO3)cc1 [Hit 113]	8
COc1ccc(C(=O)CCCCC(=O)c2ccc(OC)cc2)cc1 [Hit 114]	4
COc1ccc(CCCCCCc2ccc(OC)cc2)cc1 [Hit 115]	-1
NOS(=O)c1ccc(N=CC=Cc2ccccc2)cc1 (stereo not shown) [Hit 116]	21
COc1ccc(CC(=O)c2ccc(OC)c(OC)c2)cc1OC [Hit 117]	7
O=[N+]([O-])c1cccc(S(=O)(=O)Nc2ccc(Cl)cc2)c1 [Hit 118]	7
CC[C@@H](C(=O)c1ccc(OC)cc1)c1ccc(OC)cc1 [Hit 119]	-3
COc1ccc(C[N+](C)(C)Cc2ccc(OC)cc2)cc1 [Hit 120]	-2
COc1ccc(C=Cc2ccc3ccccc3n2)cc1 [Hit 121]	-2
COc1ccc(CCC(N)c2ccc(OC)cc2)cc1 (stereo not shown) [Hit 122]	-1
COc1cccc(C(N)CCc2cc(OC)c(OC)c(OC)c2)c1 (stereo not shown) [Hit 124]	-2
CCOc1ccc(NC(=O)Nc2ccc(OCC)cc2)cc1 [Hit 125]	-1
CCC(=Cc1ccc(OC)cc1)C(=O)c1ccc(OC)cc1 [Hit 126]	-2
COc1ccc(OC(=O)c2ccc(Cl)cc2)cc1 [Hit 127]	0
COc1ccc(C=Cc2ccc(Cl)cc2)cc1 [Hit 128]	-5
COc1ccc(C=NCCN=Cc2ccc(OC)cc2)cc1 [Hit 129]	3
O=C(OCC=Cc1ccccc1)c1ccc([N+](=O)[O-])cc1 [Hit 131]	3

Compound	% Inhibition at 10 µM [%]
Cc1ccc(S(=O)(=O)Nc2ccc3cc([N+](=O)[O-])ccc3c2[N+](=O)[O-])cc1 [Hit 132]	22
COc1ccc(C2OC(c3ccc(OC)cc3)c3ccccc32)cc1 (stereo not shown) [Hit 133]	3
COc1ccc(N=Nc2ccc(OC)cc2)cc1 [Hit 134]	8
COc1ccc(/N=N/c2ccc(O)cc2)cc1 [Hit 135]	7
O=[N+]([O-])c1ccc(S(=O)(=O)NN=Cc2ccco2)cc1 [Hit 136]	5
O=C(Oc1ccc(Cl)cc1Cl)c1ccc([N+](=O)[O-])cc1 [Hit 137]	-30
COc1ccc(NC(=O)c2ccc(Cl)cc2)cc1 [Hit 138]	-1
O=C(NC(Cc1ccc2c(c1)OCO2)C(=O)O)c1ccccc1 (stereo not shown) [Hit 139]	6
COc1ccc([C@@H](O)Cc2ccc(Cl)cc2)cc1 [Hit 140]	-7
O=[N+]([O-])c1ccc(COc2ccc(Cl)cc2)cc1 [Hit 142]	-3
CN(C)CC(O)c1ccc(C=Cc2ccc(Cl)cc2)cc1 (stereo not shown) [Hit 143]	-72
CCCCNC(C(=O)c1ccc(OC)cc1)c1ccc(OC)cc1 (stereo not shown) [Hit 144]	0
COc1ccc(C(N)C(O)c2ccc(OC)cc2)cc1 (stereo not shown) [Hit 145]	0
Cc1cc[n+](CC(=O)c2ccc([N+](=O)[O-])cc2)cc1 [Hit 146]	4
O=C(CNCCCc1ccccc1)c1ccc(O)c(O)c1 [Hit 147]	14
COc1ccc(N=[N+]([O-])c2ccc(OC)cc2)cc1 [Hit 148]	-3
COc1ccc(C(=O)C(O)c2ccc(OC)cc2)cc1 (stereo not shown) [Hit 149]	-1
COc1ccc(CC(=O)c2ccc(OC)cc2)cc1 [Hit 150]	-3
Oc1ccc(/C=C/c2ccc(Cl)cc2)cc1 [Hit 151]	-7
COc1cccc(CC(C)NCC(O)c2ccc(O)c(O)c2)c1 (stereo not shown) [Hit 152]	1
O=C(CCCc1ccc([N+](=O)[O-])cc1)c1ccccc1 [Hit 153]	-6
CNC(Cc1ccc(OC)cc1)c1ccc(OC)cc1 (stereo not shown) [Hit 154]	-2
